Test results as given in the NIST ThermoML archive (doi:10.1021/je300590v).

Assay: xn = mol fraction of the nth substance listed
Details: Vibrating tube method

N#N [nitrogen] + O=C=O
mass density [kg/m3]
Details	x2 = 0.8785	x2 = 0.9873
273.15 K, 1001 kPa, Gas	22.5	21.9
273.15 K, 2000 kPa, Gas	43.7	–
273.15 K, 2001 kPa, Gas	–	46
273.15 K, 3001 kPa, Gas	69.6	76.9
273.15 K, 3480 kPa, Gas	–	98
273.15 K, 3902 kPa, Liquid	–	911.4
273.15 K, 4000 kPa, Liquid	–	911.6
273.15 K, 4001 kPa, Gas	104	–
273.15 K, 4100 kPa, Gas	108.6	–
273.15 K, 5001 kPa, Liquid	–	922.2
273.15 K, 6000 kPa, Liquid	–	930.9
273.15 K, 7000 kPa, Liquid	–	938.7
273.15 K, 8001 kPa, Liquid	–	946
273.15 K, 8401 kPa, Liquid	805	–
273.15 K, 9000 kPa, Liquid	–	952.8
273.15 K, 9001 kPa, Liquid	811.5	–
273.15 K, 10000 kPa, Liquid	–	959.2
273.15 K, 10001 kPa, Liquid	824	–
273.15 K, 11001 kPa, Liquid	–	965.2
273.15 K, 11003 kPa, Liquid	836	–
273.15 K, 12000 kPa, Liquid	847	970.8
273.15 K, 13001 kPa, Liquid	856.6	–
273.15 K, 13002 kPa, Liquid	–	976.3
273.15 K, 14000 kPa, Liquid	865.1	–
273.15 K, 14001 kPa, Liquid	–	981.5
273.15 K, 15001 kPa, Liquid	–	986.6
273.15 K, 15002 kPa, Liquid	873.4	–
273.15 K, 16000 kPa, Liquid	–	991.4
273.15 K, 16001 kPa, Liquid	880.8	–
273.15 K, 17000 kPa, Liquid	887.8	–
273.15 K, 17002 kPa, Liquid	–	996.1
273.15 K, 18000 kPa, Liquid	894.6	–
273.15 K, 18012 kPa, Liquid	–	1000.6
273.15 K, 19001 kPa, Liquid	900.7	–
273.15 K, 19011 kPa, Liquid	–	1004.8
273.15 K, 20000 kPa, Liquid	906.6	–
273.15 K, 20001 kPa, Liquid	–	1008.7
283.15 K, 1000 kPa, Gas	–	20.1
283.15 K, 1004 kPa, Gas	19.4	–
283.15 K, 2000 kPa, Gas	–	42.5
283.15 K, 2001 kPa, Gas	40.3	–
283.15 K, 3000 kPa, Gas	64.6	69.8
283.15 K, 4000 kPa, Gas	–	106.2
283.15 K, 4001 kPa, Gas	93.7	–
283.15 K, 4500 kPa, Gas	–	131.6
283.15 K, 5001 kPa, Gas	131.6	–
283.15 K, 5101 kPa, Liquid	–	841.4
283.15 K, 5600 kPa, Gas	170.5	–
283.15 K, 6001 kPa, Liquid	–	857.5
283.15 K, 7000 kPa, Liquid	–	870.7
283.15 K, 8000 kPa, Liquid	–	882.2
283.15 K, 9001 kPa, Liquid	708.8	892.5
283.15 K, 10001 kPa, Liquid	–	901.7
283.15 K, 10002 kPa, Liquid	736.1	–
283.15 K, 11001 kPa, Liquid	757.6	910.2
283.15 K, 12000 kPa, Liquid	775.3	–
283.15 K, 12001 kPa, Liquid	–	918
283.15 K, 13000 kPa, Liquid	–	925.4
283.15 K, 13002 kPa, Liquid	790.5	–
283.15 K, 14000 kPa, Liquid	–	932.2
283.15 K, 14001 kPa, Liquid	803.8	–
283.15 K, 15001 kPa, Liquid	–	938.7
283.15 K, 15002 kPa, Liquid	815.4	–
283.15 K, 16001 kPa, Liquid	825.4	944.9
283.15 K, 17000 kPa, Liquid	835	–
283.15 K, 17001 kPa, Liquid	–	950.9
283.15 K, 18000 kPa, Liquid	843.9	–
283.15 K, 18003 kPa, Liquid	–	956.5
283.15 K, 19001 kPa, Liquid	852.1	–
283.15 K, 19002 kPa, Liquid	–	961.9
283.15 K, 20001 kPa, Liquid	859.6	967
293.15 K, 1000 kPa, Gas	–	18.4
293.15 K, 1001 kPa, Gas	18.8	–
293.15 K, 2000 kPa, Gas	38.4	39.5
293.15 K, 3000 kPa, Gas	60.8	–
293.15 K, 3001 kPa, Gas	–	64.3
293.15 K, 4001 kPa, Gas	86.7	94.5
293.15 K, 5000 kPa, Gas	117.2	135.5
293.15 K, 5700 kPa, Gas	–	180.8
293.15 K, 6000 kPa, Gas	156.7	–
293.15 K, 6300 kPa, Liquid	–	750.2
293.15 K, 7000 kPa, Liquid	–	775
293.15 K, 7002 kPa, Gas	213.8	–
293.15 K, 7601 kPa, Gas	271.4	–
293.15 K, 8001 kPa, Liquid	–	799.6
293.15 K, 9000 kPa, Liquid	–	818.4
293.15 K, 9401 kPa, Liquid	526.3	–
293.15 K, 10000 kPa, Liquid	–	833.7
293.15 K, 10001 kPa, Liquid	579.5	–
293.15 K, 11001 kPa, Liquid	633.1	–
293.15 K, 11002 kPa, Liquid	–	846.8
293.15 K, 12001 kPa, Liquid	–	858.3
293.15 K, 12002 kPa, Liquid	669.7	–
293.15 K, 13000 kPa, Liquid	696.3	868.3
293.15 K, 14000 kPa, Liquid	–	877.6
293.15 K, 14001 kPa, Liquid	718.1	–
293.15 K, 15001 kPa, Liquid	736.4	886.2
293.15 K, 16001 kPa, Liquid	752.3	–
293.15 K, 16002 kPa, Liquid	–	894.2
293.15 K, 17000 kPa, Liquid	766.2	–
293.15 K, 17001 kPa, Liquid	–	901.7
293.15 K, 18000 kPa, Liquid	778.4	–
293.15 K, 18001 kPa, Liquid	–	908.6
293.15 K, 19001 kPa, Liquid	789.6	915.2
293.15 K, 20000 kPa, Liquid	799.8	–
293.15 K, 20001 kPa, Liquid	–	921.4

O=O [oxygen] + O=C=O
mass density [kg/m3]
Details	x2 = 0.8512	x2 = 0.9558
273.15 K, 1001 kPa, Gas	20	21
273.15 K, 2001 kPa, Gas	41.9	44.5
273.15 K, 3000 kPa, Gas	68	–
273.15 K, 3001 kPa, Gas	–	74.2
273.15 K, 3600 kPa, Gas	–	97.6
273.15 K, 4001 kPa, Gas	101	–
273.15 K, 4400 kPa, Gas	121.1	–
273.15 K, 5101 kPa, Liquid	–	895
273.15 K, 6000 kPa, Liquid	–	902.5
273.15 K, 7001 kPa, Liquid	–	911.9
273.15 K, 8001 kPa, Liquid	–	920.4
273.15 K, 9001 kPa, Liquid	–	928.6
273.15 K, 9013 kPa, Liquid	798.3	–
273.15 K, 10001 kPa, Liquid	–	936
273.15 K, 10003 kPa, Liquid	811.5	–
273.15 K, 11001 kPa, Liquid	825.1	943.1
273.15 K, 12001 kPa, Liquid	837.4	949.6
273.15 K, 13001 kPa, Liquid	848.5	955.8
273.15 K, 14000 kPa, Liquid	858.7	961.5
273.15 K, 15002 kPa, Liquid	868.2	967.1
273.15 K, 16000 kPa, Liquid	877	–
273.15 K, 16001 kPa, Liquid	–	972.4
273.15 K, 17000 kPa, Liquid	–	977.6
273.15 K, 17003 kPa, Liquid	885.4	–
273.15 K, 18000 kPa, Liquid	892.9	–
273.15 K, 18001 kPa, Liquid	–	982.4
273.15 K, 19001 kPa, Liquid	–	987.2
273.15 K, 19039 kPa, Liquid	898.3	–
273.15 K, 20001 kPa, Liquid	–	991.7
283.15 K, 1000 kPa, Gas	–	21
283.15 K, 1002 kPa, Gas	19.2	–
283.15 K, 2000 kPa, Gas	–	43.2
283.15 K, 2001 kPa, Gas	39.7	–
283.15 K, 3000 kPa, Gas	63.3	–
283.15 K, 3001 kPa, Gas	–	69.8
283.15 K, 4000 kPa, Gas	–	103.9
283.15 K, 4001 kPa, Gas	91.1	–
283.15 K, 4700 kPa, Gas	–	139.4
283.15 K, 5000 kPa, Gas	125.7	–
283.15 K, 6001 kPa, Gas	175.6	–
283.15 K, 6200 kPa, Liquid	–	819
283.15 K, 7000 kPa, Liquid	–	835.3
283.15 K, 8001 kPa, Liquid	–	849.8
283.15 K, 9001 kPa, Liquid	–	862.8
283.15 K, 9610 kPa, Liquid	686.6	–
283.15 K, 10001 kPa, Liquid	699.4	873.8
283.15 K, 11001 kPa, Liquid	728.8	–
283.15 K, 11004 kPa, Liquid	–	884.1
283.15 K, 12000 kPa, Liquid	–	893.2
283.15 K, 12001 kPa, Liquid	751.4	–
283.15 K, 13000 kPa, Liquid	770.5	901.9
283.15 K, 14001 kPa, Liquid	786.6	–
283.15 K, 14002 kPa, Liquid	–	909.9
283.15 K, 15000 kPa, Liquid	800	917.3
283.15 K, 16001 kPa, Liquid	812.4	924.2
283.15 K, 17000 kPa, Liquid	–	930.8
283.15 K, 17001 kPa, Liquid	823.5	–
283.15 K, 18001 kPa, Liquid	–	937
283.15 K, 19001 kPa, Liquid	–	943
283.15 K, 20003 kPa, Liquid	–	948.7
293.15 K, 1000 kPa, Gas	–	22.8
293.15 K, 1001 kPa, Gas	18.7	–
293.15 K, 2000 kPa, Gas	38.1	–
293.15 K, 2002 kPa, Gas	–	42.6
293.15 K, 3001 kPa, Gas	59.8	66.2
293.15 K, 4001 kPa, Gas	84.6	95.2
293.15 K, 5000 kPa, Gas	–	132.4
293.15 K, 5003 kPa, Gas	113.5	–
293.15 K, 6001 kPa, Gas	–	190.2
293.15 K, 6002 kPa, Gas	148.8	–
293.15 K, 7000 kPa, Gas	194.6	–
293.15 K, 7402 kPa, Liquid	–	718
293.15 K, 8001 kPa, Gas	260.9	–
293.15 K, 8002 kPa, Liquid	–	747
293.15 K, 8600 kPa, Gas	316	–
293.15 K, 9001 kPa, Liquid	–	775.6
293.15 K, 9801 kPa, Fluid (supercritical or subcritical phases)	460.3	–
293.15 K, 10001 kPa, Fluid (supercritical or subcritical phases)	481.5	–
293.15 K, 10001 kPa, Liquid	–	797.4
293.15 K, 11001 kPa, Liquid	564.7	–
293.15 K, 11002 kPa, Liquid	–	813.9
293.15 K, 12001 kPa, Liquid	617.8	–
293.15 K, 12002 kPa, Liquid	–	828.6
293.15 K, 13000 kPa, Liquid	–	841.3
293.15 K, 13002 kPa, Liquid	657.7	–
293.15 K, 14000 kPa, Liquid	–	852.2
293.15 K, 14001 kPa, Liquid	686.2	–
293.15 K, 15001 kPa, Liquid	710.2	862.4
293.15 K, 16001 kPa, Liquid	730.8	871.6
293.15 K, 17000 kPa, Liquid	–	880.2
293.15 K, 17002 kPa, Liquid	747.7	–
293.15 K, 18000 kPa, Liquid	–	888.3
293.15 K, 19001 kPa, Liquid	–	895.9
293.15 K, 20000 kPa, Liquid	–	902.8
